Measurements taken from patent publication US20230278972A1, “SUBSTITUTED HALOALKYL SULFONANILIDE HERBICIDES” (FMC Corporation, priority 2020, published 2023).

Legend:
[1] = tested on: wheat (Triticum aestivum); test: Test A postemergence, wheat; assay type: in vivo; conditions: Triticum aestivum, post-emergence, 240 h, Postemergence, 0 to 100 scale (0 no effect, 100 complete control), read-out: Plant response rating, Wheat
Procedure, shortened: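 Preemergence: pigweed seeds in loam soil–sand blend received a directed soil spray of test chemicals in a non-phytotoxic solvent with surfactant. Postemergence: barnyardgrass, wheat and galium in pots of the same soil, 2 to 10 cm tall at one- to two-leaf stage, sprayed with the same formulation.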

kochia (Bassia scoparia) = test: Test A preemergence, kochia; assay type: in vivo; conditions: Bassia scoparia, pre-emergence, 240 h, Preemergence
Procedure, shortened: (§1)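 Seeds are sown in loam mixed with sand and sprayed on the soil surface right after planting for the preemergence test. Postemergence pots are sprayed once seedlings reach 2 to 10 cm at the one- to two-leaf stage. The same surfactant-containing, non-phytotoxic solvent formulation serves both.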

[2] = tested on: Foxtail, Giant (giant foxtail, Setaria faberi); test: Test A preemergence, Foxtail, Giant; assay type: in vivo; conditions: Setaria faberi, pre-emergence, 240 h, Preemergence
Procedure, shortened: as §1

[3] = tested on: barnyardgrass (Echinochloa crus-galli); test: Test B flooded paddy test, barnyardgrass; conditions: 336 h, read-out: Plant response rating, Barnyardgrass
[4] = tested on: ragweed (common ragweed, Ambrosia artemisiifolia); test: Test A postemergence, ragweed; assay type: in vivo; conditions: Ambrosia artemisiifolia, post-emergence, 240 h, Postemergence, 0 to 100 scale (0 no effect, 100 complete control), read-out: Plant response rating, Ragweed
Procedure, shortened: as §1

[5] = 500 g ai/ha, visual injury approx. 10 days

SMILES: Cc1cc(C)c(C(=O)N2CCC(F)(F)CC2)cc1NS(=O)(=O)C(F)(F)F [Compound 241, N-[5-[(4,4-Difluoro-1-piperidinyl)carbonyl]-2,4-dimethylphenyl]-1,1,1-trifluoromethanesulfonamide]
- plant injury at 125 g/ha ([1]; 125 g ai/ha): 30%
- plant injury at 500 g/ha [1, 5]: 70%
- pest or weed control at 125 g/ha (kochia (Bassia scoparia); 125 g ai/ha, visual injury, 0 to 100 scale (0 no effect, 100 complete control), approx. 10 days, read-out: Plant response rating, Kochia): 70%
- pest or weed control at 500 g/ha (kochia (Bassia scoparia); 500 g ai/ha, visual injury on 0 to 100 scale (0 no effect, 100 complete control), approximately 10 days, read-out: Kochia plant response rating): 100%
- pest or weed control at 125 g/ha ([2]; 125 g ai/ha, visual injury, 0 to 100 scale (0 no effect, 100 complete control), approx. 10 days, read-out: Plant response rating, Foxtail, Giant): 80%
- pest or weed control at 500 g/ha ([2]; 500 g ai/ha, visual injury on 0 to 100 scale (0 no effect, 100 complete control), approximately 10 days, read-out: Foxtail, Giant plant response rating): 100%
- pest or weed control at 250 g/ha [3]: 25%
- pest or weed control at 125 g/ha ([4]; 125 g ai/ha): 40%
- pest or weed control at 500 g/ha [4, 5]: 80%
